Reference: PubChem BioAssay (NCI)
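48-hour exposure; five concentrations; linearly interpolated endpoints. Here, GI50 denotes the concentration required for 50% inhibition of growth. TGI: total growth inhibition.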

Experiments:
Assay in all cases: NCI tumour cell line growth inhibition, 48 h
786-0 renal = test system: 786-0 renal
A498 renal = test system: A498 renal
A549 NSCLC = test system: A549 NSCLC
ACHN renal = test system: ACHN renal
BT-549 breast = test system: BT-549 breast
CAKI-1 renal = test system: CAKI-1 renal
CCRF-CEM leukemia = test system: CCRF-CEM leukemia
COLO 205 colon = test system: COLO 205 colon
DU-145 prostate = test system: DU-145 prostate
EKVX NSCLC = test system: EKVX NSCLC
HCC-2998 colon = test system: HCC-2998 colon
HCT-116 colon = test system: HCT-116 colon
HCT-15 colon = test system: HCT-15 colon
HOP-62 NSCLC = test system: HOP-62 NSCLC
HOP-92 NSCLC = test system: HOP-92 NSCLC
HS 578T breast = test system: HS 578T breast
HT29 colon = test system: HT29 colon
IGROV1 ovarian = test system: IGROV1 ovarian
K-562 leukemia = test system: K-562 leukemia
KM12 colon = test system: KM12 colon
M14 melanoma = test system: M14 melanoma
MCF7 breast = test system: MCF7 breast
MDA-MB-231 breast = test system: MDA-MB-231 breast
MDA-MB-435 = test system: MDA-MB-435
MOLT-4 leukemia = test system: MOLT-4 leukemia
NCI-H226 lung = test system: NCI-H226 lung
NCI-H23 lung = test system: NCI-H23 lung
NCI-H522 lung = test system: NCI-H522 lung
NCI/ADR-RES ovarian = test system: NCI/ADR-RES ovarian
OVCAR-3 ovarian = test system: OVCAR-3 ovarian
OVCAR-4 ovarian = test system: OVCAR-4 ovarian
OVCAR-5 ovarian = test system: OVCAR-5 ovarian
OVCAR-8 ovarian = test system: OVCAR-8 ovarian
PC-3 prostate = test system: PC-3 prostate
RPMI-8226 leukemia = test system: RPMI-8226 leukemia
RXF 393 renal = test system: RXF 393 renal
SF-268 CNS = test system: SF-268 CNS
SF-295 CNS = test system: SF-295 CNS
SF-539 CNS = test system: SF-539 CNS
SK-MEL-2 melanoma = test system: SK-MEL-2 melanoma
SK-MEL-28 melanoma = test system: SK-MEL-28 melanoma
SK-MEL-5 melanoma = test system: SK-MEL-5 melanoma
SK-OV-3 ovarian = test system: SK-OV-3 ovarian
SN12C renal = test system: SN12C renal
SNB-19 CNS = test system: SNB-19 CNS
SNB-75 CNS = test system: SNB-75 CNS
SW-620 colon = test system: SW-620 colon
T-47D breast = test system: T-47D breast
TK-10 renal = test system: TK-10 renal
U251 CNS = test system: U251 CNS
UACC-257 melanoma = test system: UACC-257 melanoma
UACC-62 melanoma = test system: UACC-62 melanoma
UO-31 renal = test system: UO-31 renal
HL-60(TB) leukemia = test system: HL-60(TB) leukemia
MALME-3M melanoma = test system: MALME-3M melanoma
NCI-H460 lung = test system: NCI-H460 lung

`COc1ccc2c(c1)C(N)CC2=O` (stereo unspecified) showed a TGI (786-0 renal) of over 100 µM, a TGI (A498 renal) of over 100 µM and a TGI (A549 NSCLC) of 38.2 µM. For the same compound, the TGI (ACHN renal) was over 100 µM, the TGI (BT-549 breast) was over 100 µM and the TGI (CAKI-1 renal) was over 100 µM. It also gave a TGI (CCRF-CEM leukemia) of over 100 µM, a TGI (COLO 205 colon) of over 100 µM and a TGI (DU-145 prostate) of over 100 µM. For the same compound, the TGI (EKVX NSCLC) was over 100 µM, the TGI (HCC-2998 colon) was over 100 µM and the TGI (HCT-116 colon) was over 100 µM. It also gave a TGI (HCT-15 colon) of over 100 µM, a TGI (HOP-62 NSCLC) of over 100 µM and a TGI (HOP-92 NSCLC) of over 100 µM. It also gave a TGI (HS 578T breast) of over 100 µM, a TGI (HT29 colon) of over 100 µM and a TGI (IGROV1 ovarian) of over 100 µM. It also gave a TGI (K-562 leukemia) of over 100 µM, a TGI (KM12 colon) of over 100 µM and a TGI (M14 melanoma) of over 100 µM. For the same compound, the TGI (MCF7 breast) was over 100 µM, the TGI (MDA-MB-231 breast) was over 100 µM and the TGI (MDA-MB-435) was over 100 µM. For the same compound, the TGI (MOLT-4 leukemia) was over 100 µM, the TGI (NCI-H226 lung) was over 100 µM and the TGI (NCI-H23 lung) was over 100 µM. For the same compound, the TGI (NCI-H522 lung) was over 100 µM, the TGI (NCI/ADR-RES ovarian) was over 100 µM and the TGI (OVCAR-3 ovarian) was over 100 µM. For the same compound, the TGI (OVCAR-4 ovarian) was over 100 µM, the TGI (OVCAR-5 ovarian) was over 100 µM and the TGI (OVCAR-8 ovarian) was over 100 µM. For the same compound, the TGI (PC-3 prostate) was 34.8 µM, the TGI (RPMI-8226 leukemia) was over 100 µM and the TGI (RXF 393 renal) was 36.3 µM. It also gave a TGI (SF-268 CNS) of over 100 µM, a TGI (SF-295 CNS) of over 100 µM and a TGI (SF-539 CNS) of over 100 µM. For the same compound, the TGI (SK-MEL-2 melanoma) was 74.1 µM, the TGI (SK-MEL-28 melanoma) was over 100 µM and the TGI (SK-MEL-5 melanoma) was over 100 µM. The TGI (SK-OV-3 ovarian) was over 100 µM, the TGI (SN12C renal) was over 100 µM and the TGI (SNB-19 CNS) was over 100 µM. It also gave a TGI (SNB-75 CNS) of over 100 µM, a TGI (SW-620 colon) of over 100 µM and a TGI (T-47D breast) of over 100 µM. The TGI (TK-10 renal) was over 100 µM, the TGI (U251 CNS) was over 100 µM and the TGI (UACC-257 melanoma) was over 100 µM. For the same compound, the TGI (UACC-62 melanoma) was over 100 µM and the TGI (UO-31 renal) was over 100 µM.
`COc1ccc(-c2ccc(C3CC(c4ccc(O)cc4)=NN3)o2)c([N+](=O)[O-])c1` (stereo unspecified) gave a GI50 (786-0 renal) of 45.1 µM, a TGI (786-0 renal) of over 100 µM and a GI50 (A498 renal) of 30.4 µM. The TGI (A498 renal) was over 100 µM, the GI50 (A549 NSCLC) was 25.7 µM and the TGI (A549 NSCLC) was 84 µM. The GI50 (ACHN renal) was 42 µM, the TGI (ACHN renal) was over 100 µM and the GI50 (BT-549 breast) was 32.8 µM. For the same compound, the TGI (BT-549 breast) was over 100 µM, the GI50 (CAKI-1 renal) was 34.4 µM and the TGI (CAKI-1 renal) was over 100 µM. It also gave a GI50 (CCRF-CEM leukemia) of 4.84 µM, a TGI (CCRF-CEM leukemia) of over 100 µM and a GI50 (COLO 205 colon) of 27.2 µM. For the same compound, the TGI (COLO 205 colon) was 82.7 µM, the GI50 (DU-145 prostate) was 29.4 µM and the TGI (DU-145 prostate) was over 100 µM. The GI50 (EKVX NSCLC) was 43 µM, the TGI (EKVX NSCLC) was over 100 µM and the GI50 (HCT-116 colon) was 20.1 µM. It also gave a TGI (HCT-116 colon) of over 100 µM, a GI50 (HCT-15 colon) of 35.4 µM and a TGI (HCT-15 colon) of over 100 µM. It also gave a GI50 (HL-60(TB) leukemia) of 13 µM, a TGI (HL-60(TB) leukemia) of 38.8 µM and a GI50 (HOP-62 NSCLC) of 34 µM. For the same compound, the TGI (HOP-62 NSCLC) was over 100 µM, the GI50 (HS 578T breast) was 34.7 µM and the TGI (HS 578T breast) was over 100 µM. For the same compound, the GI50 (HT29 colon) was 40.1 µM, the TGI (HT29 colon) was 97.6 µM and the GI50 (IGROV1 ovarian) was 84.9 µM. The TGI (IGROV1 ovarian) was over 100 µM, the GI50 (K-562 leukemia) was 13.9 µM and the TGI (K-562 leukemia) was 36.3 µM. For the same compound, the GI50 (KM12 colon) was 24.5 µM, the TGI (KM12 colon) was 95.9 µM and the GI50 (M14 melanoma) was 36.1 µM. For the same compound, the TGI (M14 melanoma) was over 100 µM, the GI50 (MALME-3M melanoma) was 19.1 µM and the TGI (MALME-3M melanoma) was 51.3 µM. The GI50 (MCF7 breast) was 24.4 µM, the TGI (MCF7 breast) was 74.4 µM and the GI50 (MDA-MB-435) was 30 µM. For the same compound, the TGI (MDA-MB-435) was over 100 µM, the GI50 (MOLT-4 leukemia) was 5.14 µM and the TGI (MOLT-4 leukemia) was 29.9 µM. The GI50 (NCI-H226 lung) was 36.4 µM, the TGI (NCI-H226 lung) was over 100 µM and the GI50 (NCI-H23 lung) was 42.5 µM. The TGI (NCI-H23 lung) was over 100 µM, the GI50 (NCI-H460 lung) was 21.1 µM and the TGI (NCI-H460 lung) was 81.8 µM. The GI50 (NCI-H522 lung) was 39 µM, the TGI (NCI-H522 lung) was over 100 µM and the GI50 (NCI/ADR-RES ovarian) was 38.5 µM. The TGI (NCI/ADR-RES ovarian) was over 100 µM, the GI50 (OVCAR-3 ovarian) was 24.1 µM and the TGI (OVCAR-3 ovarian) was over 100 µM. It also gave a GI50 (OVCAR-4 ovarian) of 50.2 µM, a TGI (OVCAR-4 ovarian) of 96.6 µM and a GI50 (OVCAR-5 ovarian) of over 100 µM. For the same compound, the TGI (OVCAR-5 ovarian) was over 100 µM, the GI50 (OVCAR-8 ovarian) was 42.8 µM and the TGI (OVCAR-8 ovarian) was over 100 µM. It also gave a GI50 (PC-3 prostate) of 25.9 µM, a TGI (PC-3 prostate) of over 100 µM and a GI50 (RPMI-8226 leukemia) of 11.6 µM. For the same compound, the TGI (RPMI-8226 leukemia) was 71.9 µM, the GI50 (RXF 393 renal) was 23.7 µM and the TGI (RXF 393 renal) was over 100 µM. The GI50 (SF-268 CNS) was 22.3 µM, the TGI (SF-268 CNS) was over 100 µM and the GI50 (SF-295 CNS) was 29.9 µM. For the same compound, the TGI (SF-295 CNS) was over 100 µM, the GI50 (SF-539 CNS) was 27.4 µM and the TGI (SF-539 CNS) was 97.5 µM. The GI50 (SK-MEL-28 melanoma) was 45.8 µM, the TGI (SK-MEL-28 melanoma) was over 100 µM and the GI50 (SK-OV-3 ovarian) was 19.8 µM. The TGI (SK-OV-3 ovarian) was over 100 µM, the GI50 (SN12C renal) was 30.8 µM and the TGI (SN12C renal) was over 100 µM. It also gave a GI50 (SNB-19 CNS) of 82.6 µM, a TGI (SNB-19 CNS) of over 100 µM and a GI50 (SW-620 colon) of 37.3 µM. The TGI (SW-620 colon) was over 100 µM, the GI50 (T-47D breast) was 75 µM and the TGI (T-47D breast) was over 100 µM. For the same compound, the GI50 (TK-10 renal) was 40.1 µM, the TGI (TK-10 renal) was over 100 µM and the GI50 (U251 CNS) was 19 µM. For the same compound, the TGI (U251 CNS) was over 100 µM, the GI50 (UACC-62 melanoma) was 33.1 µM and the TGI (UACC-62 melanoma) was over 100 µM. For the same compound, the GI50 (UO-31 renal) was 50.3 µM and the TGI (UO-31 renal) was over 100 µM.
